Measured values published in ChEMBL document CHEMBL1629695, “A novel polymyxin derivative that lacks the fatty acid tail and carries only three positive charges has strong synergism with agents excluded by the intact outer membrane” (Antimicrob Agents Chemother, 2010).
Converted amounts (≈) assume the structure as drawn. Bridge positions count the residues as written; N and C are the ends. Square brackets hold non-standard residues; d marks the D form. Peptide text beside a SMILES is read from it. Dab = NCC[C@H](N)C(=O)O

Legend:
Assay type in all cases: functional
[1] = test system: Escherichia coli; assay: Antimicrobial activity against Escherichia coli ATCC 25922 by Etest method in presence of 4 ug/ml NAB741
[2] = test system: Escherichia coli; assay: Antimicrobial activity against Escherichia coli IH3080 by Etest method in presence of 4 ug/ml NAB741
[3] = test system: Klebsiella pneumoniae; assay: Antimicrobial activity against Klebsiella pneumoniae ATCC 13883 by Etest method in presence of 4 ug/ml NAB741
[4] = test system: Enterobacter cloacae; assay: Antimicrobial activity against Enterobacter cloacae ATCC 23355 by Etest method in presence of 4 ug/ml NAB741
[5] = test system: Acinetobacter baumannii; assay: Antimicrobial activity against Acinetobacter baumannii ATCC 19606 by Etest method in presence of 4 ug/ml NAB741
[6] = test system: Escherichia coli; assay: Ratio of MIC for Escherichia coli ATCC 25922 to MIC for Escherichia coli ATCC 25922 in presence of 4 ug/ml of NAB741
[7] = test system: Escherichia coli; assay: Ratio of MIC for Escherichia coli IH3080 to MIC for Escherichia coli IH3080 in presence of 4 ug/ml of NAB741
[8] = test system: Klebsiella pneumoniae; assay: Ratio of MIC for Klebsiella pneumoniae ATCC 13883 to MIC for Klebsiella pneumoniae ATCC 13883 in presence of 4 ug/ml of NAB741
[9] = test system: Enterobacter cloacae; assay: Ratio of MIC for Enterobacter cloacae ATCC 23355 to MIC for Enterobacter cloacae ATCC 23355 in presence of 4 ug/ml of NAB741
[10] = test system: Acinetobacter baumannii; assay: Ratio of MIC for Acinetobacter baumannii ATCC 19606 to MIC for Acinetobacter baumannii ATCC 19606 in presence of 4 ug/ml of NAB741
[11] = test system: Escherichia coli; assay: Antimicrobial activity against Escherichia coli IH3080 assessed as zone of inhibition at 10 ug after 18 hrs by disk diffusion method
[12] = test system: Escherichia coli; assay: Antimicrobial activity against Escherichia coli IH3080 assessed as zone of inhibition at 10 ug after 18 hrs by disk diffusion method in presence of 1 ug/ml rifampin
[13] = test system: Acinetobacter baumannii; assay: Antimicrobial activity against Acinetobacter baumannii ATCC 19606 assessed as zone of inhibition at 10 ug after 18 hrs by disk diffusion method
[14] = test system: Acinetobacter baumannii; assay: Antimicrobial activity against Acinetobacter baumannii ATCC 19606 assessed as zone of inhibition at 10 ug after 18 hrs by disk diffusion method in presence of 1 ug/ml rifampin
[15] = test system: Pseudomonas aeruginosa; assay: Antimicrobial activity against Pseudomonas aeruginosa ATCC 27853 assessed as zone of inhibition at 10 ug after 18 hrs by disk diffusion method
[16] = test system: Pseudomonas aeruginosa; assay: Antimicrobial activity against Pseudomonas aeruginosa ATCC 27853 assessed as zone of inhibition at 10 ug after 18 hrs by disk diffusion method in presence of 1 ug/ml rifampin
[17] = test system: Escherichia coli; assay: Antimicrobial activity against Escherichia coli ATCC 25922
[18] = test system: Escherichia coli; assay: Antimicrobial activity against Escherichia coli ATCC 25922 in presence of 2 ug/ml NAB741
[19] = test system: Escherichia coli; assay: Antimicrobial activity against Escherichia coli ATCC 25922 in presence of 4 ug/ml NAB741
[20] = test system: Escherichia coli; assay: Antimicrobial activity against Escherichia coli ATCC 25922 in presence of 8 ug/ml NAB741
[21] = test system: Escherichia coli; assay: Antimicrobial activity against Escherichia coli ATCC 25922 in presence of […] ug/ml NAB741
[22] = test system: Escherichia coli; assay: Antimicrobial activity against Escherichia coli ATCC 25922 in presence of 32 ug/ml NAB741
[23] = test system: Escherichia coli; assay: Antimicrobial activity against Escherichia coli ATCC 25922 by Etest method
[24] = test system: Escherichia coli; assay: Antimicrobial activity against Escherichia coli ATCC 25922 by Etest method in presence of 2 ug/ml NAB741
[25] = test system: Escherichia coli; assay: Antimicrobial activity against in Escherichia coli ATCC 25922 in presence of NAB741
[26] = test system: Escherichia coli; assay: Antimicrobial activity against Escherichia coli IH3080 by Etest method
[27] = test system: Escherichia coli; assay: Antimicrobial activity against Escherichia coli IH3080 by Etest method in presence of 2 ug/ml NAB741
[28] = test system: Escherichia coli; assay: Antimicrobial activity against in Escherichia coli IH3080 in presence of NAB741
[29] = test system: Klebsiella pneumoniae; assay: Antimicrobial activity against Klebsiella pneumoniae ATCC 13883 by Etest method
[30] = test system: Klebsiella pneumoniae; assay: Antimicrobial activity against Klebsiella pneumoniae ATCC 13883 by Etest method in presence of 2 ug/ml NAB741
[31] = test system: Enterobacter cloacae; assay: Antimicrobial activity against Enterobacter cloacae ATCC 23355 by Etest method
[32] = test system: Enterobacter cloacae; assay: Antimicrobial activity against Enterobacter cloacae ATCC 23355 by Etest method in presence of 2 ug/ml NAB741
[33] = test system: Enterobacter cloacae; assay: Antimicrobial activity against in Enterobacter cloacae ATCC 23355 in presence of NAB741
[34] = test system: Acinetobacter baumannii; assay: Antimicrobial activity against Acinetobacter baumannii ATCC 19606 by Etest method
[35] = test system: Acinetobacter baumannii; assay: Antimicrobial activity against Acinetobacter baumannii ATCC 19606 by Etest method in presence of 2 ug/ml NAB741
[36] = test system: Acinetobacter baumannii; assay: Antimicrobial activity against in Acinetobacter baumannii ATCC 19606 in presence of NAB741

Compound	MIC [1] [µg/mL]	MIC [2] [µg/mL]	MIC [3] [µg/mL]	MIC [4] [µg/mL]	MIC [5] [µg/mL]	Ratio [6]	Ratio [7]	Ratio [8]	Ratio [9]	Ratio [10]	further results
CC[C@H]1OC(=O)[C@H](C)[C@@H](O[C@H]2C[C@@](C)(OC)[C@@H](O)[C@H](C)O2)[C@H](C)[C@@H](O[C@@H]2O[C@H](C)C[C@H](N(C)C)[C@H]2O)[C@](C)(O)C[C@@H](C)CN(C)[C@H](C)[C@@H](O)[C@]1(C)O [AZITHROMYCIN]	0.125	0.094	0.125	0.25	1.5	16	8	11	16	21	–
CC(=O)O[C@H]1C[C@@]2(C)[C@@H](C[C@@H](O)[C@H]3[C@@]4(C)CC[C@@H](O)[C@@H](C)[C@@H]4CC[C@@]32C)/C1=C(\CCC=C(C)C)C(=O)O [FUSIDIC ACID]	1.5	2	48	2	6	>170	>130	>5	>130	>43	–
C/C(=C\C(=O)OCCCCCCCCC(=O)O)C[C@@H]1OC[C@H](C[C@@H]2O[C@H]2[C@@H](C)[C@H](C)O)[C@@H](O)[C@H]1O [MUPIROCIN]	0.75	1	6	0.25	512	64	24	8	50	<2	–
CC(C)C[C@@H]1NC(=O)[C@@H](Cc2ccccc2)NC(=O)[C@H](CCN)NC(=O)[C@@H](NC(=O)[C@H](CCN)NC(=O)[C@@H](N)[C@@H](C)O)CCNC(=O)[C@H]([C@@H](C)O)NC(=O)[C@H](CCN)NC(=O)[C@H](CCN)NC1=O [POLYMYXIN B NONAPEPTIDE] (H-T[Dab][Dab][Dab][dF]L[Dab][Dab]T; lactam 3-C)	–	–	–	–	–	–	–	–	–	–	inhibition zone (IZ) [11]: 3 mm2; inhibition zone (IZ) [12]: 143 mm2; inhibition zone (IZ) [13]: 3 mm2; inhibition zone (IZ) [14]: 155 mm2; inhibition zone (IZ) [15]: 144 mm2; inhibition zone (IZ) [16]: 169 mm2
CO[C@H]1/C=C/O[C@@]2(C)Oc3c(C)c(O)c4c(O)c(c(/C=N/N5CCN(C)CC5)c(O)c4c3C2=O)NC(=O)/C(C)=C\C=C\[C@H](C)[C@H](O)[C@@H](C)[C@@H](O)[C@@H](C)[C@H](OC(C)=O)[C@@H]1C [RIFAMPIN]	0.016	0.047	0.5	0.016	0.094	–	–	–	–	–	MIC [17]: 8 µg/mL (≈ 9.72 µM); MIC [18]: 4 µg/mL; MIC [19]: 1 µg/mL; MIC [20]: 0.25 µg/mL; MIC [21]: 0.063 µg/mL; MIC [22]: 0.031 µg/mL; MIC [23]: 4 µg/mL (≈ 4.86 µM); MIC [24]: 0.64 µg/mL; fractional inhibitory concentration index (FICI) [25]: 0.126; MIC [26]: 4 µg/mL (≈ 4.86 µM); MIC [27]: 0.19 µg/mL; fractional inhibitory concentration index (FICI) [28]: 0.111; MIC [29]: 12 µg/mL (≈ 14.6 µM); MIC [30]: 1 µg/mL; MIC [31]: 6 µg/mL (≈ 7.29 µM); MIC [32]: 1.5 µg/mL; fractional inhibitory concentration index (FICI) [33]: 0.126; MIC [34]: 1.5 µg/mL (≈ 1.82 µM); MIC [35]: 0.19 µg/mL; fractional inhibitory concentration index (FICI) [36]: 0.131
CN[C@H](CC(C)C)C(=O)N[C@H]1C(=O)N[C@@H](CC(N)=O)C(=O)N[C@H]2C(=O)N[C@H]3C(=O)N[C@H](C(=O)N[C@H](C(=O)O)c4cc(O)cc(O)c4-c4cc3ccc4O)[C@H](O)c3ccc(c(Cl)c3)Oc3cc2cc(c3O[C@@H]2O[C@H](CO)[C@@H](O)[C@H](O)[C@H]2O[C@H]2C[C@](C)(N)[C@H](O)[C@H](C)O2)Oc2ccc(cc2Cl)[C@H]1O [VANCOMYCIN]	8	16	128	1.5	24	>32	>16	>2	>170	>11	–
POLYMYXIN B	–	–	–	–	–	–	–	–	–	–	inhibition zone (IZ) [11]: 129 mm2; inhibition zone (IZ) [12]: 133 mm2; inhibition zone (IZ) [13]: 185 mm2; inhibition zone (IZ) [14]: 202 mm2; inhibition zone (IZ) [15]: 151 mm2; inhibition zone (IZ) [16]: 166 mm2
